According to US5686486A, “4-hydroxy-benzopyran-2-ones and 4-hydroxy-cycloalkyl[b]pyran-2-ones useful to treat retroviral infections” (priority 1995, dated 1997):

What was measured:
HIV-1 protease [1] = target: T1, HIV-1 protease (Human immunodeficiency virus type 1 group M subtype B, UniProt P04585); assay: biochemical; conditions: for inhibition at 0.123 µM: read-out: HIV-1 Protease % Inhib, dose 0.123 uM; for inhibition at 0.37 µM: read-out: HIV-1 Protease % Inhib, dose 0.370 uM; for inhibition at 1.1 µM: read-out: HIV-1 Protease % Inhib, dose 1.100 uM; for inhibition at 3.3 µM: read-out: HIV-1 Protease % Inhib, dose 3.300 uM; for inhibition at 10 µM: read-out: HIV-1 Protease % Inhib, dose 10.000 uM; for inhibition at 30 µM: read-out: HIV-1 Protease % Inhib, dose 30.000 uM
Method in brief: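 Percent inhibition derived from fluorescent cleavage product separated by filtration after streptavidin-bead capture of intact biotin/FITC substrate. Reaction: enzyme (10 μl, 0.1 μM stock) with substrate (20 μl, 0.2 μM stock) and compound, 1 h at room temperature in dark, pH 5.5 acetate buffer with 1.0 M NaCl and 0.05% NP-40.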

HIV-1 protease [2] = target: T1, HIV-1 protease; assay: biochemical; conditions: read-out: HIV-1 FITC KI
Method in brief: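 Enzyme (40 nM stock) and substrate (200 μM stock) incubated with inhibitor, 24–48 two-fold serial concentrations, for 90 min at room temperature, then quenched with avidin beads. Nonlinear least-squares analysis gives Ki; a known-Ki inhibitor validates each run.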

Compound | inhibition at 0.123 µM (HIV-1 protease [1]) | inhibition at 0.37 µM (HIV-1 protease [1]) | inhibition at 1.1 µM (HIV-1 protease [1]) | inhibition at 3.3 µM (HIV-1 protease [1]) | inhibition at 10 µM (HIV-1 protease [1]) | inhibition at 30 µM (HIV-1 protease [1]) | Ki (HIV-1 protease [2]) | HIV-1 Protease % Inhib (HIV-1 protease [1]; dose 0.123 uM) | HIV-1 Protease % Inhib (HIV-1 protease [1]; dose 0.370 uM) | HIV-1 Protease % Inhib (HIV-1 protease [1]; dose 1.100 uM) | HIV-1 Protease % Inhib (HIV-1 protease [1]; dose 3.300 uM) | HIV-1 Protease % Inhib (HIV-1 protease [1]; dose 10.000 uM) | HIV-1 Protease % Inhib (HIV-1 protease [1]; dose 30.000 uM)
O=c1oc2c(c(O)c1C(c1cccc(NS(=O)(=O)c3cccc(S(=O)(=O)N4CCOCC4)c3)c1)C1CC1)CCCCCC2 (stereo not drawn) [Example 411, N-[3-[Cyclopropyl(5,6,7,8,9,10-hexahydro-4-hydroxy-2-oxo-2H-cycloocta[b]pyran-3-yl)-methyl]phenyl]-(3-N-morpholinebenzenesulfonyl)benzenesulfonamide] | 71.1% | 79.4% | 98.5% | 104% | 107% | 106% | 2.5 nM | – | – | – | – | – | –
O=c1oc2c(c(O)c1C(c1cccc(NS(=O)(=O)c3cccc(S(=O)(=O)NCc4ccccc4)c3)c1)C1CC1)CCCCCC2 (stereo not drawn) [Example 412, N-[3-[Cyclopropyl(5,6,7,8,9,10-hexahydro-4-hydroxy-2-oxo-2H-cycloocta[b]pyran-3-yl)-methyl]phenyl]-(3-N-benzylbenzenesulfonyl)benzenesulfonamide] | 37.8% | 69.2% | 92% | 102% | 99% | 102% | 9.2 nM | – | – | – | – | – | –
O=c1oc2c(c(O)c1C(c1cccc(NS(=O)(=O)c3cccc(S(=O)(=O)N(Cc4ccccc4)Cc4ccccc4)c3)c1)C1CC1)CCCCCC2 (stereo not drawn) [Example 413, N-[3-[Cyclopropyl(5,6,7,8,9,10-hexahydro-4-hydroxy-2-oxo-2H-cycloocta[b]pyran-3-yl)-methyl]phenyl]-(3-N,N-dibenzylbenzenesulfonyl)benzenesulfonamide] | – | 17.4% | 43.1% | 77.7% | 95.2% | 92.7% | 104 nM | – | – | – | – | – | –
COCCOCCOCCOc1ccc(S(=O)(=O)Nc2cccc(C(c3c(O)c4c(oc3=O)CCCCCC4)C3CC3)c2)cc1 (stereo not drawn) [Example 415, Benzenesulfonamide, N-[3-[cyclopropyl(5,6,7,8,9,10-hexahydro-4-hydroxy-2-oxo-2H-cycloocta[b]pyran-3-yl)methyl]phenyl]-4-[2-[2-(2-methoxyethoxy)ethoxy]ethoxy]-] | 126% | 121% | 128% | 124% | 125% | 120% | 2.3 nM | – | – | – | – | – | –
CC(C)CC(c1cccc(NS(=O)(=O)c2ccc(C#N)cc2)c1)c1c(O)c2c(oc1=O)CCCCCC2 (stereo not drawn) [Example 426, Benzenesulfonamide, 4-cyano-N-[3-[1-(5,6,7,8,9,10-hexahydro-4-hydroxy-2-oxo-2H-cycloocta[b]pyran-3-yl)-3-methylbutyl]phenyl]-] | 102% | 117% | 109% | 102% | 102% | 106% | 1.48 nM | – | – | – | – | – | –
CC(C)CC(c1cccc(NS(=O)(=O)c2cn(C)cn2)c1)c1c(O)c2c(oc1=O)CCCCCC2 (stereo not drawn) [Example 427, 1H-Imidazole-4-sulfonamide, N-[3-[1-(5,6,7,8,9,10-hexahydro-4-hydroxy-2-oxo-2H-cycloocta[b]pyran-3-yl)-3-methylbutyl]phenyl]-1-methyl-] | 94.2% | 92.8% | 91.2% | 90% | 89.6% | 81.9% | 0.65 nM | – | – | – | – | – | –
CCCC(c1cccc(NS(=O)(=O)c2cn(C)cn2)c1)c1c(O)c2c(oc1=O)CCCCCC2 (stereo not drawn) [Example 431, 1H-imidazole-4-sulfonamide, N-[3-[1-(5,6,7,8,9,10-hexahydro-4-hydroxy-2-oxo-2H-cycloocta[b]pyran-3-yl)butyl]phenyl]-1-methyl-] | 109% | 109% | 109% | 112% | 105% | 106% | 0.89 nM | – | – | – | – | – | –
CCCC(c1cccc(NS(=O)(=O)c2cccc3cccnc23)c1)c1c(O)c2c(oc1=O)CCCCCC2 (stereo not drawn) [Example 432, 8-Quinolinesulfonamide, N-[3-[1-(5,6,7,8,9,10-hexahydro4-hydroxy-2-oxo-2H-cycloocta[b]pyran-3-yl)butyl]phenyl]-] | 101% | 104% | 111% | 109% | 107% | 98% | 1.65 nM | – | – | – | – | – | –
CCCC(c1cccc(NS(=O)(=O)c2cccnc2)c1)c1c(O)c2c(oc1=O)CCCCCC2 (stereo not drawn) [Example 433, 3-Pyridinesulfonamide, N-[3-[1-(5,6,7,8,9,10-hexahydro-4-hydroxy-2-oxo-2H-cycloocta[b]pyran-3-yl)butyl]phenyl]-] | 103% | 109% | 104% | 104% | 109% | 108% | 2.24 nM | – | – | – | – | – | –
O=c1oc2c(c(O)c1C1(c3ccccc3)CCC1)CCCCCC2 [Example 483, 3-(Phenylcyclobutyl)-5,6,7,8,9,10-hexahydro-4-hydroxy-2H-cycloocta[b]pyran-2-one] | – | 44.8% | 73.2% | 85.2% | 69.5% | 76.7% | 33 nM | – | – | – | – | – | –
Nc1cc(NS(=O)(=O)c2ccccc2)cc(C(c2c(O)c3c(oc2=O)CCCCCC3)C2CC2)c1 (stereo not drawn) [Example 486] | – | 40% | 74% | 97.5% | 126% | 109% | 55 nM | – | – | – | – | – | –
N-[3-[Cyclopropyl(5,6,7,8,9,10-hexahydro-4-hydroxy-2-oxo-2H-cycloocta[b]pyran-3-yl)-methyl]phenyl]-(3-N-ethylbenzenesulfonyl)benzenesulfonamide [Example 414] | – | – | – | – | – | – | 3.5 nM | 62.73% | 85.78% | 103.16% | 105.93% | 104.38% | 109.61%
